{"source": "ChEMBL document CHEMBL1201862", "about": "“PubChem BioAssay data set” (2004)", "assay_in_all_cases": "NCI anticancer screen, dose series, 48 h", "key": {"COLO 205": {"system": "COLO 205"}, "SK-OV-3": {"system": "SK-OV-3"}, "RXF 393": {"system": "RXF 393"}, "SK-MEL-2": {"system": "SK-MEL-2"}, "DMS-114": {"system": "DMS-114"}, "CAKI-1": {"system": "CAKI-1"}, "UACC-257": {"system": "UACC-257"}, "KM-20L2": {"system": "KM-20L2"}, "SN12C": {"system": "SN12C"}, "UACC-62": {"system": "UACC-62"}, "SF-268": {"system": "SF-268"}, "RXF 631": {"system": "RXF 631"}, "SK-MEL-28": {"system": "SK-MEL-28"}, "OVCAR-4": {"system": "OVCAR-4"}, "NCI-H522": {"system": "NCI-H522"}, "HCT-15": {"system": "HCT-15"}, "A498": {"system": "A498"}, "CCRF-CEM": {"system": "CCRF-CEM"}, "HCC 2998": {"system": "HCC 2998"}, "HOP-62": {"system": "HOP-62"}, "A549": {"system": "A549"}, "SNB-78": {"system": "SNB-78"}, "HOP-18": {"system": "HOP-18"}, "KM12": {"system": "KM12"}, "SK-MEL-5": {"system": "SK-MEL-5"}, "HT-29": {"system": "HT-29"}, "IGROV-1": {"system": "IGROV-1"}, "DMS-273": {"system": "DMS-273"}, "M19-MEL": {"system": "M19-MEL"}, "HCT-116": {"system": "HCT-116"}, "K562": {"system": "K562"}, "NCI-H460": {"system": "NCI-H460"}, "OVCAR-3": {"system": "OVCAR-3"}, "M14": {"system": "M14"}, "NCI-H226": {"system": "NCI-H226"}, "UO-31": {"system": "UO-31"}, "TK-10": {"system": "TK-10"}, "LXFL 529": {"system": "LXFL 529"}, "OVCAR-8": {"system": "OVCAR-8"}, "786-0": {"system": "786-0"}, "SF-539": {"system": "SF-539"}, "SNB-75": {"system": "SNB-75"}, "HOP-92": {"system": "HOP-92"}, "EKVX": {"system": "EKVX"}, "NCI-H23": {"system": "NCI-H23"}, "Malme-3M": {"system": "Malme-3M"}, "DLD-1": {"system": "DLD-1"}, "HL-60": {"system": "HL-60"}, "LOX IMVI": {"system": "LOX IMVI"}, "SNB-19": {"system": "SNB-19"}, "ACHN": {"system": "ACHN"}, "SF-295": {"system": "SF-295"}, "OVCAR-5": {"system": "OVCAR-5"}, "SW-620": {"system": "SW-620"}, "U-251": {"system": "U-251"}, "MOLT-4": {"system": "MOLT-4"}}, "note": "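Protocol summary: plate cells (96-well), add compound at 5 concentrations, incubate 48 h, interpolate endpoints linearly. GI50: concentration for 50% inhibition of growth.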 Calls of active or inactive are those of the source. Rule as the data show it: active = GI50 up to about 1.1 µM and inactive = higher.", "data": [{"compound": "CCN1C(=O)C(=CN)C(=O)N(CC)C1=O", "values": [{"measurement": "GI50", "setting": "COLO 205", "value": "> 100 µM (inactive)"}, {"measurement": "GI50", "setting": "SK-OV-3", "value": "> 100 µM (inactive)"}, {"measurement": "GI50", "setting": "RXF 393", "value": "> 100 µM (inactive)"}, {"measurement": "GI50", "setting": "SK-MEL-2", "value": "> 100 µM (inactive)"}, {"measurement": "GI50", "setting": "DMS-114", "value": "> 100 µM (inactive)"}, {"measurement": "GI50", "setting": "CAKI-1", "value": "> 100 µM (inactive)"}, {"measurement": "GI50", "setting": "UACC-257", "value": "> 100 µM (inactive)"}, {"measurement": "GI50", "setting": "KM-20L2", "value": "> 100 µM (inactive)"}, {"measurement": "GI50", "setting": "SN12C", "value": "> 100 µM (inactive)"}, {"measurement": "GI50", "setting": "UACC-62", "value": "> 100 µM (inactive)"}, {"measurement": "GI50", "setting": "SF-268", "value": "> 100 µM (inactive)"}, {"measurement": "GI50", "setting": "RXF 631", "value": "> 100 µM (inactive)"}, {"measurement": "GI50", "setting": "SK-MEL-28", "value": "> 100 µM (inactive)"}, {"measurement": "GI50", "setting": "OVCAR-4", "value": "> 100 µM (inactive)"}, {"measurement": "GI50", "setting": "NCI-H522", "value": "> 100 µM (inactive)"}, {"measurement": "GI50", "setting": "HCT-15", "value": "> 100", "unit": "µM"}, {"measurement": "GI50", "setting": "A498", "value": "> 100 µM (inactive)"}, {"measurement": "GI50", "setting": "CCRF-CEM", "value": "> 100 µM (inactive)"}, {"measurement": "GI50", "setting": "HCC 2998", "value": "> 100 µM (inactive)"}, {"measurement": "GI50", "setting": "HOP-62", "value": "> 100 µM (inactive)"}, {"measurement": "GI50", "setting": "A549", "value": "> 100 µM (inactive)"}, {"measurement": "GI50", "setting": "SNB-78", "value": "> 100 µM (inactive)"}, {"measurement": "GI50", "setting": "HOP-18", "value": "24.7 µM (inactive)"}, {"measurement": "GI50", "setting": "KM12", "value": "> 100 µM (inactive)"}, {"measurement": "GI50", "setting": "SK-MEL-5", "value": "> 100 µM (inactive)"}, {"measurement": "GI50", "setting": "HT-29", "value": "> 100 µM (inactive)"}, {"measurement": "GI50", "setting": "IGROV-1", "value": "> 100 µM (inactive)"}, {"measurement": "GI50", "setting": "DMS-273", "value": "> 100 µM (inactive)"}, {"measurement": "GI50", "setting": "M19-MEL", "value": "> 100 µM (inactive)"}, {"measurement": "GI50", "setting": "HCT-116", "value": "> 100 µM (inactive)"}, {"measurement": "GI50", "setting": "K562", "value": "> 100 µM (inactive)"}, {"measurement": "GI50", "setting": "NCI-H460", "value": "> 100 µM (inactive)"}, {"measurement": "GI50", "setting": "OVCAR-3", "value": "> 100 µM (inactive)"}, {"measurement": "GI50", "setting": "M14", "value": "> 100 µM (inactive)"}, {"measurement": "GI50", "setting": "NCI-H226", "value": "> 100 µM (inactive)"}, {"measurement": "GI50", "setting": "UO-31", "value": "58.2 µM (inactive)"}, {"measurement": "GI50", "setting": "TK-10", "value": "44.5 µM (inactive)"}, {"measurement": "GI50", "setting": "LXFL 529", "value": "> 100 µM (inactive)"}, {"measurement": "GI50", "setting": "OVCAR-8", "value": "> 100 µM (inactive)"}, {"measurement": "GI50", "setting": "786-0", "value": "> 100 µM (inactive)"}, {"measurement": "GI50", "setting": "SF-539", "value": "> 100 µM (inactive)"}, {"measurement": "GI50", "setting": "SNB-75", "value": "14.7 µM (inactive)"}, {"measurement": "GI50", "setting": "HOP-92", "value": "38.8 µM (inactive)"}, {"measurement": "GI50", "setting": "EKVX", "value": "> 100 µM (inactive)"}, {"measurement": "GI50", "setting": "NCI-H23", "value": "> 100 µM (inactive)"}, {"measurement": "GI50", "setting": "Malme-3M", "value": "> 100 µM (inactive)"}, {"measurement": "GI50", "setting": "DLD-1", "value": "> 100 µM (inactive)"}, {"measurement": "GI50", "setting": "HL-60", "value": "> 100 µM (inactive)"}, {"measurement": "GI50", "setting": "LOX IMVI", "value": "> 100 µM (inactive)"}, {"measurement": "GI50", "setting": "SNB-19", "value": "> 100 µM (inactive)"}, {"measurement": "GI50", "setting": "ACHN", "value": "> 100 µM (inactive)"}, {"measurement": "GI50", "setting": "SF-295", "value": "> 100 µM (inactive)"}, {"measurement": "GI50", "setting": "OVCAR-5", "value": "> 100 µM (inactive)"}, {"measurement": "GI50", "setting": "SW-620", "value": "> 100 µM (inactive)"}, {"measurement": "GI50", "setting": "U-251", "value": "10 µM (inactive)"}, {"measurement": "GI50", "setting": "MOLT-4", "value": "> 100 µM (inactive)"}]}]}
